In article PMC8689140 (Frontiers in Pharmacology, 2021):

Columns and labels:
rhCYP CYP2C9 = system: T1, rhCYP CYP2C9; assay: P450 phenotyping, rhCYP isozymes, CYP2C9; type: in vitro ADME, human; conditions: rhCYP2C9 probe substrate, 1 µM
T1 construct: purchased Corning Co., Ltd (Shanghai, China)
Text: (§1) According to the result of metabolite identification, three metabolites were selected as the targets for metabolic phenotyping. Seven CYP isozymes (CYP1A2, CYP2B6, CYP2C8, CYP2C9, CYP2C19, CYP2D6, and CYP3A4) were investigated using two kinds of methods: chemical inhibitors in human liver microsomes (HLMs) method (Experiment 1) and rhCYP isozymes method (Experiment 2).
Experiment 2: Each rhCYP isozyme was thawed and diluted as above method. As positive controls, the probe substrates of each P450 isozyme were tested under the same conditions. […] Vx ([…]) is the production rate of metabolites for each rhCYP isozyme.

CYP2C9 = system: T2, CYP2C9; assay: P450 phenotyping, chemical inhibitors in HLMs, CYP2C9; type: in vitro ADME, human; conditions: CYP2C9 probe substrate, 5 µM, specific inhibitor
T2 construct: tissue Corning Co., Ltd (Shanghai, China); host or cells: human liver microsomes
Experimental: as §1
Experiment 1: HLMs were thawed on ice and diluted in100 mM sodium phosphate buffer (pH 7.4) containing 3 mM magnesium chloride. […] After 10 min of preincubation at 37°C, the reactions were initiated by adding 20 µL of NADPH (10 mM) and then incubated at 37 °C in a shaking water bath for 30 min. The samples were prepared in triplicates. The reactions were terminated by adding 600 µL of ice-cold acetonitrile and stored at −20°C until analysis. Control samples without NADPH and 0-time point samples were included. As positive controls, the probe substrates of each P450 isozyme under the same conditions were tested, and specific inhibitors was added. Next, the samples were centrifuged at 13,000 rpm for 10 min, the supernatants were determined by LC–MS/MS.

O=C(O)Cc1ccccc1Nc1c(Cl)cccc1Cl [Diclofenac]
CL int in rhCYP (rhCYP CYP2C9): 6.15 µL/min/pmol
%Inhibation in HLM (CYP2C9): 89.9%
